Results as given in ChEMBL document CHEMBL2074360, “Sequence analysis and functional characterization of the 5'-flanking region of the rat multidrug resistance protein 2 (mrp2) gene” (Biochem Biophys Res Commun, 1998).

Key:
[1] = target: T1, ATP-binding cassette sub-family C member 2 (Rattus norvegicus, UniProt Q63120); experiment: TP_TRANSPORTER: Western blot, H4IIE rat hepatoma cells; assay type: functional, cell-based
[2] = target: T1, ATP-binding cassette sub-family C member 2; experiment: TP_TRANSPORTER: Northern blot from H4IIE rat hepatoma cells; assay type: functional, cell-based

T1 sequence (Q63120 whole entry): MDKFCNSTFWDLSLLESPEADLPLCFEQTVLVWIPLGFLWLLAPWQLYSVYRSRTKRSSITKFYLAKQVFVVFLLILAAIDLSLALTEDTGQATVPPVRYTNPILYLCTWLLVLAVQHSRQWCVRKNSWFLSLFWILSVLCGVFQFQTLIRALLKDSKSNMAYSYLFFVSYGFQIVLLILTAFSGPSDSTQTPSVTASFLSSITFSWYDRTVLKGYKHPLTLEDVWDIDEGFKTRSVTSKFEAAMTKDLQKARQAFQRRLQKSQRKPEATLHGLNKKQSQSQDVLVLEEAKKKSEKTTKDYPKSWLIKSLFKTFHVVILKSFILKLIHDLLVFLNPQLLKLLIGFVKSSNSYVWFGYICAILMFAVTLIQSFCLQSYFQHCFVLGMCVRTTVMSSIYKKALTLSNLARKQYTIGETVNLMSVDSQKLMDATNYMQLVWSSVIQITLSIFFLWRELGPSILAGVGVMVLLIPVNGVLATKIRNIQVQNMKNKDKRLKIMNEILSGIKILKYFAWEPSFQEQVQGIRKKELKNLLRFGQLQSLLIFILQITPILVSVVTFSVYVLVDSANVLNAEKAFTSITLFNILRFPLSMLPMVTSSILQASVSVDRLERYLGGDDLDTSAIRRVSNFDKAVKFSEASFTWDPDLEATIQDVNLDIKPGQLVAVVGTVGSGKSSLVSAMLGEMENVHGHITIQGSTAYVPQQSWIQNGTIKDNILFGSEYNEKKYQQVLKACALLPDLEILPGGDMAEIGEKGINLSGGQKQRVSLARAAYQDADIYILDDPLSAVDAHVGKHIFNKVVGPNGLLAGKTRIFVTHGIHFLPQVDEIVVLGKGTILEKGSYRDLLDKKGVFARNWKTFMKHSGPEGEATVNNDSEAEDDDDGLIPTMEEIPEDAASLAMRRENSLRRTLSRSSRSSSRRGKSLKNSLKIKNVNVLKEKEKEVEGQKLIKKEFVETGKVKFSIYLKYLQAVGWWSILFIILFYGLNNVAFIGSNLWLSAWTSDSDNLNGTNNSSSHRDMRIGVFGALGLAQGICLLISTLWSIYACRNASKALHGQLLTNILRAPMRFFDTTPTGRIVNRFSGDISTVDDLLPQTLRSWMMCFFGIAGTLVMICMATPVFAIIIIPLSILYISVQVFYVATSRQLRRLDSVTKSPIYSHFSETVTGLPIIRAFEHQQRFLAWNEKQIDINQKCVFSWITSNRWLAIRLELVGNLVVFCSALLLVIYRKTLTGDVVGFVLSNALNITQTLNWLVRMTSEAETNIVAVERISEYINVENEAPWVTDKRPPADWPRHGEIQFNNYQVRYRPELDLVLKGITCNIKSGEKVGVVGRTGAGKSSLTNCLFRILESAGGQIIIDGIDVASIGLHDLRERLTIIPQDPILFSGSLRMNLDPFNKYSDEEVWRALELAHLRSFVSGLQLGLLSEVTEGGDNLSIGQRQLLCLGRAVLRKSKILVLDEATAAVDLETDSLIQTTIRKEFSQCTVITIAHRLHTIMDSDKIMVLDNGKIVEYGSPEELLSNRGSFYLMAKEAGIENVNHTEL

| SMILES | Activity [1] | Activity [2] |
| --- | --- | --- |
| CCC1(c2ccccc2)C(=O)NC(=O)NC1=O [PHENOBARBITAL] | inducer [+] | inducer [+] |
| C#C[C@]1(O)CC[C@H]2[C@@H]3CCc4cc(O)ccc4[C@H]3CC[C@@]21C [ETHINYL ESTRADIOL] | inducer [+] | inducer [+] |
